The supplement of paper PMC10307832

Columns and labels:
Assay in all cases: relative viability (nuclei count vs DMSO), 5 days (fraction); higher = more cells survive
ABC-1 = tested on: ABC-1
Summary of the method: (§1)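 Medians of duplicate plates are given as relative viability. That measure is the nuclei count in treated wells divided by the count in vehicle wells. Counts were taken on 4× images of lung cancer cell lines in 1536-well plates, 5 days after pin-tool dosing the day after seeding with one drug alone or a fixed anchor-drug dose plus five library-drug doses (not always all listed) in √10 steps.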

CAL-12T = tested on: CAL-12T
Summary of the method: as §1

COR-L23 = tested on: COR-L23
Summary of the method: as §1

EMC-BAC-2 = tested on: EMC-BAC-2
Summary of the method: as §1

HARA = tested on: HARA
Summary of the method: as §1

HCC-366 = tested on: HCC-366
Summary of the method: as §1

HOP-62 = tested on: HOP-62
Summary of the method: as §1

LK-2 = tested on: LK-2
Summary of the method: as §1

NCI-H1437 = tested on: NCI-H1437
Summary of the method: as §1

NCI-H1650 = tested on: NCI-H1650
Summary of the method: as §1

NCI-H1651 = tested on: NCI-H1651
Summary of the method: as §1

NCI-H1734 = tested on: NCI-H1734
Summary of the method: as §1

NCI-H1755 = tested on: NCI-H1755
Summary of the method: as §1

NCI-H2347 = tested on: NCI-H2347
Summary of the method: as §1

NCI-H3122 = tested on: NCI-H3122
Summary of the method: as §1

NCI-H441 = tested on: NCI-H441
Summary of the method: as §1

NCI-H596 = tested on: NCI-H596
Summary of the method: as §1

NCI-H727 = tested on: NCI-H727
Summary of the method: as §1

PC-3 [JPC-3] = tested on: PC-3 [JPC-3]
Summary of the method: as §1

RERF-LC-KJ = tested on: RERF-LC-KJ
Summary of the method: as §1

SK-LU-1 = tested on: SK-LU-1
Summary of the method: as §1

UMC-11 = tested on: UMC-11
Summary of the method: as §1

Cc1csc(=NC2CCCCC2)n1/N=C/c1ccc(O)c(O)c1O [MIM1] + Cc1cc(Nc2cc(N3CCN(C)CC3)nc(Sc3ccc(NC(=O)C4CC4)cc3)n2)n[nH]1 [Tozasertib] (partner 0.1 µM)
relative viability (ABC-1; first compound 0.2 µM): 0.228
relative viability (ABC-1; first compound 0.6325 µM): 0.182
relative viability (ABC-1; first compound 2 µM): 0.21
relative viability (ABC-1; first compound 6.325 µM): 0.206
relative viability (ABC-1; first compound 20 µM): 0.194
relative viability (CAL-12T; first compound 0.2 µM): 0.244
relative viability (CAL-12T; first compound 0.6325 µM): 0.254
relative viability (CAL-12T; first compound 2 µM): 0.303
relative viability (CAL-12T; first compound 6.325 µM): 0.206
relative viability (CAL-12T; first compound 20 µM): 0.204
relative viability (COR-L23; first compound 0.2 µM): 0.184
relative viability (COR-L23; first compound 0.6325 µM): 0.218
relative viability (COR-L23; first compound 2 µM): 0.182
relative viability (COR-L23; first compound 6.325 µM): 0.146
relative viability (COR-L23; first compound 20 µM): 0.152
relative viability (EMC-BAC-2; first compound 0.2 µM): 0.219
relative viability (EMC-BAC-2; first compound 0.6325 µM): 0.3
relative viability (EMC-BAC-2; first compound 2 µM): 0.273
relative viability (EMC-BAC-2; first compound 6.325 µM): 0.272
relative viability (EMC-BAC-2; first compound 20 µM): 0.202
relative viability (HARA; first compound 0.2 µM): 0.101
relative viability (HARA; first compound 2 µM): 0.0957
relative viability (HARA; first compound 6.325 µM): 0.112
relative viability (HARA; first compound 20 µM): 0.0634
relative viability (HCC-366; first compound 0.2 µM): 0.147
relative viability (HCC-366; first compound 2 µM): 0.134
relative viability (HCC-366; first compound 6.325 µM): 0.026
relative viability (HCC-366; first compound 20 µM): 0.0212
relative viability (HOP-62; first compound 0.2 µM): 0.38
relative viability (HOP-62; first compound 0.6325 µM): 0.378
relative viability (HOP-62; first compound 2 µM): 0.298
relative viability (HOP-62; first compound 6.325 µM): 0.335
relative viability (HOP-62; first compound 20 µM): 0.184
relative viability (LK-2; first compound 0.2 µM): 0.186
relative viability (LK-2; first compound 2 µM): 0.161
relative viability (LK-2; first compound 6.325 µM): 0.166
relative viability (LK-2; first compound 20 µM): 0.142
relative viability (NCI-H1437; first compound 0.2 µM): 0.395
relative viability (NCI-H1437; first compound 0.6325 µM): 0.434
relative viability (NCI-H1437; first compound 2 µM): 0.437
relative viability (NCI-H1437; first compound 6.325 µM): 0.346
relative viability (NCI-H1437; first compound 20 µM): 0.197
relative viability (NCI-H1650; first compound 0.2 µM): 0.529
relative viability (NCI-H1650; first compound 0.6325 µM): 0.411
relative viability (NCI-H1650; first compound 2 µM): 0.282
relative viability (NCI-H1650; first compound 6.325 µM): 0.322
relative viability (NCI-H1650; first compound 20 µM): 0.133
relative viability (NCI-H1651; first compound 0.2 µM): 0.601
relative viability (NCI-H1651; first compound 0.6325 µM): 0.689
relative viability (NCI-H1651; first compound 2 µM): 0.565
relative viability (NCI-H1651; first compound 6.325 µM): 0.607
relative viability (NCI-H1651; first compound 20 µM): 0.503
relative viability (NCI-H1734; first compound 0.2 µM): 0.226
relative viability (NCI-H1734; first compound 0.6325 µM): 0.261
relative viability (NCI-H1734; first compound 2 µM): 0.256
relative viability (NCI-H1734; first compound 6.325 µM): 0.169
relative viability (NCI-H1734; first compound 20 µM): 0.124
relative viability (NCI-H1755; first compound 0.2 µM): 0.606
relative viability (NCI-H1755; first compound 0.6325 µM): 0.629
relative viability (NCI-H1755; first compound 2 µM): 0.563
relative viability (NCI-H1755; first compound 6.325 µM): 0.477
relative viability (NCI-H1755; first compound 20 µM): 0.266
relative viability (NCI-H2347; first compound 0.2 µM): 0.478
relative viability (NCI-H2347; first compound 0.6325 µM): 0.51
relative viability (NCI-H2347; first compound 2 µM): 0.497
relative viability (NCI-H2347; first compound 6.325 µM): 0.473
relative viability (NCI-H2347; first compound 20 µM): 0.369
relative viability (NCI-H3122; first compound 0.2 µM): 0.446
relative viability (NCI-H3122; first compound 0.6325 µM): 0.464
relative viability (NCI-H3122; first compound 2 µM): 0.366
relative viability (NCI-H3122; first compound 6.325 µM): 0.155
relative viability (NCI-H3122; first compound 20 µM): 0.0965
relative viability (NCI-H441; first compound 0.2 µM): 0.675
relative viability (NCI-H441; first compound 2 µM): 0.599
relative viability (NCI-H441; first compound 6.325 µM): 0.376
relative viability (NCI-H441; first compound 20 µM): 0.312
relative viability (NCI-H596; first compound 0.2 µM): 0.929
relative viability (NCI-H596; first compound 0.6325 µM): 0.931
relative viability (NCI-H596; first compound 2 µM): 0.817
relative viability (NCI-H596; first compound 6.325 µM): 0.872
relative viability (NCI-H596; first compound 20 µM): 0.782
relative viability (NCI-H727; first compound 0.2 µM): 0.513
relative viability (NCI-H727; first compound 0.6325 µM): 0.536
relative viability (NCI-H727; first compound 2 µM): 0.592
relative viability (NCI-H727; first compound 6.325 µM): 0.574
relative viability (NCI-H727; first compound 20 µM): 0.506
relative viability (PC-3 [JPC-3]; first compound 0.2 µM): 0.912
relative viability (PC-3 [JPC-3]; first compound 0.6325 µM): 0.86
relative viability (PC-3 [JPC-3]; first compound 2 µM): 0.849
relative viability (PC-3 [JPC-3]; first compound 6.325 µM): 0.694
relative viability (PC-3 [JPC-3]; first compound 20 µM): 0.574
relative viability (RERF-LC-KJ; first compound 0.2 µM): 0.507
relative viability (RERF-LC-KJ; first compound 0.6325 µM): 0.503
relative viability (RERF-LC-KJ; first compound 2 µM): 0.317
relative viability (RERF-LC-KJ; first compound 6.325 µM): 0.231
relative viability (RERF-LC-KJ; first compound 20 µM): 0.224
relative viability (SK-LU-1; first compound 0.2 µM): 0.329
relative viability (SK-LU-1; first compound 0.6325 µM): 0.374
relative viability (SK-LU-1; first compound 2 µM): 0.393
relative viability (SK-LU-1; first compound 6.325 µM): 0.273
relative viability (SK-LU-1; first compound 20 µM): 0.283
relative viability (UMC-11; first compound 0.2 µM): 0.197
relative viability (UMC-11; first compound 2 µM): 0.196
relative viability (UMC-11; first compound 6.325 µM): 0.207
relative viability (UMC-11; first compound 20 µM): 0.187
